Drawing on ChEMBL document CHEMBL4665816, “Syringoleosides A-H, Secoiridoids from Syringa dilatata Flowers and Their Inhibition of NO Production in LPS-Induced RAW 264.7 Cells” (J Nat Prod, 2020), this text covers IC50 for twelve compounds.

This experiment deals with RAW264.7. In words: Anti-inflammatory activity in mouse RAW264.7 cells assessed as inhibition of LPS-induced NO production after 24 hrs by Griess reagent-based assay. Format: functional, cell-based. To be noted: RAW264.7, 24 h.
As to `C/C=C1/[C@H](O[C@@H]2O[C@H](CO)[C@@H](O)[C@H](O)[C@H]2O)OC=C(C(=O)OC)[C@H]1CC(=O)OC[C@H]1O[C@@H](OCc2ccccc2)[C@H](O)[C@@H](O)[C@@H]1O`, the IC50 was 32.5 µM. With `C/C=C1/[C@H](O[C@@H]2O[C@H](CO)[C@@H](O)[C@H](O)[C@H]2O)OC=C(C(=O)OC)[C@H]1CC(=O)OC[C@H]1O[C@@H](OCCc2ccccc2)[C@H](O)[C@@H](O)[C@@H]1O`, the IC50 came to 65.7 µM. The figure for `C/C=C1/[C@H](O[C@@H]2O[C@H](CO)[C@@H](O)[C@H](O)[C@H]2O)OC=C(C(=O)OC)[C@H]1CC(=O)OC` is > 80 µM; for `C/C=C1/[C@H](O[C@@H]2O[C@H](CO)[C@@H](O)[C@H](O)[C@H]2O)OC=C(C(=O)OC)[C@H]1CC(=O)OC[C@H]1O[C@@H](Oc2ccc(/C=C/CO)cc2OC)[C@H](O)[C@@H](O)[C@@H]1O` it is > 80 µM; for `C/C=C1/[C@H](O[C@@H]2O[C@H](CO)[C@@H](O)[C@H](O)[C@H]2O)OC=C(C(=O)OC)[C@H]1CC(=O)OC[C@H]1O[C@@H](OCCc2ccc(O)cc2)[C@H](O)[C@@H](O)[C@@H]1O` it is 59.8 µM. Take `C/C=C1/[C@H](O[C@@H]2O[C@H](CO)[C@@H](O)[C@H](O)[C@H]2O)OC=C(C(=O)OC)[C@H]1CC(=O)OCCc1ccc(O)c(O)c1` [OLEUROPEIN]: the IC50 was > 80 µM. For `C/C=C1/[C@H](O[C@@H]2O[C@H](CO)[C@@H](O)[C@H](O)[C@H]2O)OC=C(C(=O)OC)[C@H]1CC(=O)OC[C@H]1O[C@@H](Oc2ccc(O)cc2)[C@H](O)[C@@H](O)[C@@H]1O`, the 50% inhibitory concentration (IC50) is 58.3 µM.

`C/C=C1/[C@H](O[C@@H]2O[C@H](CO)[C@@H](O)[C@H](O)[C@H]2O)OC=C(C(=O)OC)[C@H]1CC(=O)O[C@@H]1[C@@H](O)[C@H](O[C@@H]2OC=C(C(=O)OC)[C@@H](CC(=O)OC[C@H]3O[C@@H](OCCc4ccc(O)cc4)[C@H](O)[C@@H](O)[C@@H]3O)/C2=C\C)O[C@H](CO)[C@H]1O`: the IC50 is > 80 µM. As to `C/C=C1/[C@H](O[C@@H]2O[C@H](CO)[C@@H](OC(=O)/C=C/c3ccc(O)c(O)c3)[C@H](O)[C@H]2O)OC=C(C(=O)OC)[C@H]1CC(=O)O[C@@H]1[C@@H](O)[C@@H](O)[C@H](O[C@H]2[C@H](O)[C@@H](O)[C@H](OCCc3ccc(O)c(O)c3)O[C@@H]2CO)O[C@H]1C`, the IC50 was > 80 µM. On to `C/C=C1/[C@H](O[C@@H]2O[C@H](CO)[C@@H](O)[C@H](O)[C@H]2O)OC=C(C(=O)OC)[C@H]1CC(=O)OC[C@H]1O[C@@H](OCCc2ccc(O)c(O)c2)[C@H](O)[C@@H](O)[C@@H]1O`, for which the IC50 was 48.9 µM.

Turning to `C/C=C1/[C@H](O[C@@H]2O[C@H](CO)[C@@H](O)[C@H](O)[C@H]2O)OC=C(C(=O)OC)[C@H]1CC(=O)O[C@H]1[C@H](OCCc2ccc(O)c(O)c2)O[C@H](CO)[C@@H](O)[C@@H]1O[C@@H]1O[C@@H](C)[C@H](O)[C@@H](O)[C@H]1O`, the half-maximal inhibitory concentration (IC50) came out at 42.1 µM.

As for `C/C=C1/[C@H](O[C@@H]2O[C@H](CO)[C@@H](O)[C@H](O)[C@H]2O)OC=C(C(=O)OC)[C@H]1CC(=O)O[C@H]1[C@H](O[C@@H]2OC=C(C(=O)OC)[C@@H](CC(=O)OC[C@H]3O[C@@H](OCCc4ccc(O)cc4)[C@H](O)[C@@H](O)[C@@H]3O)/C2=C\C)O[C@H](CO)[C@@H](O)[C@@H]1O`, the IC50 is > 80 µM.

The term IC50 denotes the concentration that inhibits the measured activity by half.
